Test results as given in patent publication US20250276953A1, “SMALL MOLECULE SIRTUIN INHIBITORS AND USES THEREOF” (The Regents of the University of Michigan, priority 2022, published 2025).

Biological target: T1, SIRT5 (Homo sapiens (Human), UniProt Q9NXA8)
Assay: SIRT5 IC50 (Table I)
Type: biochemical

T1 sequence (Q9NXA8 37-310): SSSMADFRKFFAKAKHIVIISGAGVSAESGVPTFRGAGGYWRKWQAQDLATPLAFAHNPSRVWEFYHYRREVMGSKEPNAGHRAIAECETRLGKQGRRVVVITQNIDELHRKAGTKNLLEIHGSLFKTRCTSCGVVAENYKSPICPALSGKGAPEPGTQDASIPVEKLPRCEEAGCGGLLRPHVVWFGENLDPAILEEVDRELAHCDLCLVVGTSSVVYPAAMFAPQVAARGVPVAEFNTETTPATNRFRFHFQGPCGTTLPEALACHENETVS

SMILES | IC50 [µM]
CC(=O)Nc1ccc(-c2csc(NC(=S)Nc3ccc(C(=O)O)cc3O)n2)cc1 [Compound 1-9, 4-(3-(4-(4-acetamidophenyl)thiazol-2-yl)thioureido)-3-hydroxybenzoic acid] | 50.7 ± 5.64
N#Cc1ccc(-c2csc(NC(=S)Nc3ccc(C(=O)O)c(O)c3)n2)c(F)c1 [Compound 1-33, 4-(3-(4-(4-cyano-2-fluorophenyl)thiazol-2-yl)thioureido)-2-hydroxybenzoic acid] | 14.8 ± 0.81
O=C(O)c1ccc(NC(=S)Nc2nc(-c3ccc([N+](=O)[O-])c(S(=O)(=O)NCc4ccccc4)c3)cs2)cc1O [Compound 1-39, 4-(3-(4-(3-(N-benzylsulfamoyl)-4-nitrophenyl)thiazol-2-yl)thioureido)-2-hydroxybenzoic acid] | 2.5 ± 0.21
O=C(O)c1ccc(NC(=S)Nc2nc(-c3ccc(Cl)cc3)cs2)cc1O [Compound 1-27, 4-(3-(4-(4-chlorophenyl)thiazol-2-yl)thioureido)-2-hydroxybenzoic acid] | 18.4 ± 0.28
CC(=O)Nc1ccccc1-c1csc(NC(=S)Nc2ccc(C(=O)O)c(O)c2)n1 [Compound 1-25, 4-(3-(4-(2-acetamidophenyl)thiazol-2-yl)thioureido)-2-hydroxybenzoic acid] | 55.6 ± 5.49
O=C(O)c1ccc(NC(=S)Nc2nc(-c3ccc(F)c(S(=O)(=O)NC4CCCC4)c3)cs2)cc1O [Compound 1-37, 4-(3-(4-(3-(N-cyclopentylsulfamoyl)-4-fluorophenyl)thiazol-2-yl)thioureido)-2-hydroxybenzoic acid] | 24.9 ± 0.54
O=C(O)c1ccc(NC(=S)Nc2nc(-c3cccc(O)c3)cs2)cc1O [Compound 1-21, 2-hydroxy-4-(3-(4-(3-hydroxyphenyl)thiazol-2-yl)thioureido)benzoic acid] | 32.8 ± 3.87
CNS(=O)(=O)c1cccc(-c2csc(NC(=S)Nc3ccc(C(=O)O)c(O)c3)n2)c1 [Compound 1-29, 2-hydroxy-4-(3-(4-(3-(N-methylsulfamoyl)phenyl)thiazol-2-yl)thioureido)benzoic acid] | 26.1 ± 1.91
O=C(O)c1ccc(NC(=S)Nc2nc(-c3ccc(F)c([N+](=O)[O-])c3)cs2)cc1O [Compound 1-36, 4-(3-(4-(4-fluoro-3-nitrophenyl)thiazol-2-yl)thioureido)-2-hydroxybenzoic acid] | 11.6 ± 0.74
Cc1ccccc1-c1csc(NC(=S)Nc2ccc(C(=O)O)c(O)c2)n1 [Compound 1-12, 2-hydroxy-4-(3-(4-(o-tolyl)thiazol-2-yl)thioureido)benzoic acid] | 34 ± 2.18
O=C(O)c1ccc(NC(=S)Nc2nc(-c3cccc(F)c3)cs2)cc1O [Compound 1-14, 4-(3-(4-(3-fluorophenyl)thiazol-2-yl)thioureido)-2-hydroxybenzoic acid] | 18.3 ± 0.95
CC(=O)Nc1cccc(-c2csc(NC(=S)Nc3ccc(C(=O)O)c(O)c3)n2)c1 [Compound 1-24, 4-(3-(4-(3-acetamidophenyl)thiazol-2-yl)thioureido)-2-hydroxybenzoic acid] | 35.6 ± 1.3
O=C(O)c1ccc(NC(=S)Nc2nc(-c3ccc(F)c(F)c3)cs2)cc1O [Compound 1-30, 4-(3-(4-(3,4-difluorophenyl)thiazol-2-yl)thioureido)-2-hydroxybenzoic acid] | 16.1 ± 0.73
Cc1ccc(-c2csc(NC(=S)Nc3ccc(C(=O)O)c(O)c3)n2)cc1 [Compound 1-10, 2-hydroxy-4-(3-(4-(p-tolyl)thiazol-2-yl)thioureido)benzoic acid] | 23.4 ± 0.92
O=C(O)c1ccc(NC(=S)Nc2nc(-c3cccc(C(F)(F)F)c3)cs2)cc1O [Compound 1-17, 2-hydroxy-4-(3-(4-(3-(trifluoromethyl)phenyl)thiazol-2-yl)thioureido)benzoic acid] | 24.3 ± 2.54
O=C(O)c1ccc(NC(=S)Nc2nc(-c3ccc(Br)cc3)cs2)cc1O [Compound 1-26, 4-(3-(4-(4-bromophenyl)thiazol-2-yl)thioureido)-2-hydroxybenzoic acid] | 18.6 ± 0.23
O=C(O)c1ccc(NC(=S)Nc2nc(-c3ccc(C(F)(F)F)cc3)cs2)cc1O [Compound 1-16, 2-hydroxy-4-(3-(4-(4-(trifluoromethyl)phenyl)thiazol-2-yl)thioureido)benzoic acid] | 26.8 ± 1.42
O=C(O)c1ccc(NC(=S)Nc2nc(-c3ccc([N+](=O)[O-])cc3F)cs2)cc1O [Compound 1-34, 4-(3-(4-(2-fluoro-4-nitrophenyl)thiazol-2-yl)thioureido)-2-hydroxybenzoic acid] | 23.8 ± 2.71
COc1ccc(-c2csc(NC(=S)Nc3ccc(C(=O)O)c(O)c3)n2)cc1 [Compound 1-18, 2-hydroxy-4-(3-(4-(4-methoxyphenyl)thiazol-2-yl)thioureido)benzoic acid] | 29.2 ± 2.88

Second part, the molecule after the results:

IC50 [µM] | SMILES
101 ± 8.48 | CC(=O)Nc1ccc(-c2csc(NC(=S)Nc3ccc(C(=O)O)cc3)n2)cc1 [Compound 1-7, 4-(3-(4-(4-acetamidophenyl)thiazol-2-yl)thioureido)benzoic acid]
41.6 ± 3.79 | COc1cccc(-c2csc(NC(=S)Nc3ccc(C(=O)O)c(O)c3)n2)c1 [Compound 1-19, 2-hydroxy-4-(3-(4-(3-methoxyphenyl)thiazol-2-yl)thioureido)benzoic acid]
11.4 ± 0.5 | N#Cc1ccc(-c2csc(NC(=S)Nc3ccc(C(=O)O)c(O)c3)n2)cc1 [Compound 1-22, 4-(3-(4-(4-cyanophenyl)thiazol-2-yl)thioureido)-2-hydroxybenzoic acid]
27.7 ± 1.02 | Cc1cccc(-c2csc(NC(=S)Nc3ccc(C(=O)O)c(O)c3)n2)c1 [Compound 1-11, 2-hydroxy-4-(3-(4-(m-tolyl)thiazol-2-yl)thioureido)benzoic acid]
55.9 ± 5.42 | CC(=O)Nc1ccc(-c2csc(NC(=S)Nc3ccc(O)c(C(=O)O)c3)n2)cc1 [Compound 1-8, 5-(3-(4-(4-acetamidophenyl)thiazol-2-yl)thioureido)-2-hydroxybenzoic acid]
12.4 ± 0.58 | CC(=O)Nc1ccc(-c2csc(NC(=S)Nc3ccc(C(=O)O)c(O)c3)n2)cc1 [Compound 1-5, 4-(3-(4-(4-acetamidophenyl)thiazol-2-yl)thioureido)-2-hydroxybenzoic acid]
4.3 ± 0.3 | O=C(O)c1ccc(NC(=S)Nc2nc(-c3ccc([N+](=O)[O-])cc3)cs2)cc1O [Compound 1-23, 2-hydroxy-4-(3-(4-(4-nitrophenyl)thiazol-2-yl)thioureido)benzoic acid]
26.2 ± 2.54 | O=C(O)c1ccc(NC(=S)Nc2nc(-c3ccccc3F)cs2)cc1O [Compound 1-15, 4-(3-(4-(2-fluorophenyl)thiazol-2-yl)thioureido)-2-hydroxybenzoic acid]
26.4 ± 0.83 | CC(=O)Nc1ccc(-c2csc(Nc3ccc(C(=O)O)c(O)c3)n2)cc1 [Compound 1-1, 4-((4-(4-acetamidophenyl)thiazol-2-yl)amino)-2-hydroxybenzoic acid]
12.8 ± 0.48 | N#Cc1ccc(-c2csc(NC(=S)Nc3ccc(C(=O)O)c(O)c3)n2)cc1F [Compound 1-32, 4-(3-(4-(4-cyano-3-fluorophenyl)thiazol-2-yl)thioureido)-2-hydroxybenzoic acid]
38.8 ± 3.13 | CNS(=O)(=O)c1ccc(-c2csc(NC(=S)Nc3ccc(C(=O)O)c(O)c3)n2)cc1 [Compound 1-28, 2-hydroxy-4-(3-(4-(4-(N-methylsulfamoyl)phenyl)thiazol-2-yl)thioureido)benzoic acid]
14.9 ± 1.35 | O=C(O)c1ccc(NC(=S)Nc2nc(-c3ccc([N+](=O)[O-])c(F)c3)cs2)cc1O [Compound 1-35, 4-(3-(4-(3-fluoro-4-nitrophenyl)thiazol-2-yl)thioureido)-2-hydroxybenzoic acid]
17.3 ± 0.28 | O=C(O)c1ccc(NC(=S)Nc2nc(-c3ccc(F)cc3)cs2)cc1O [Compound 1-13, 4-(3-(4-(4-fluorophenyl)thiazol-2-yl)thioureido)-2-hydroxybenzoic acid]
19.3 ± 0.93 | O=C(O)c1ccc(NC(=S)Nc2nc(-c3ccc(F)cc3F)cs2)cc1O [Compound 1-31, 4-(3-(4-(2,4-difluorophenyl)thiazol-2-yl)thioureido)-2-hydroxybenzoic acid]
8.22 ± 1.3 | O=C(O)c1ccc(NC(=S)Nc2nc(-c3ccc(F)c(S(=O)(=O)NCc4ccccc4)c3)cs2)cc1O [Compound 1-38, 4-(3-(4-(3-(N-benzylsulfamoyl)-4-fluorophenyl)thiazol-2-yl)thioureido)-2-hydroxybenzoic acid]
42.5 ± 3.83 | O=C(O)c1ccc(NC(=S)Nc2nc(-c3ccc(O)cc3)cs2)cc1O [Compound 1-20, 2-hydroxy-4-(3-(4-(4-hydroxyphenyl)thiazol-2-yl)thioureido)benzoic acid]

System: Ewing sarcoma cell line A4573
Assay: Growth inhibition of Ewing sarcoma cell line A4573
Type: cell-based

SMILES | growth of Ewing sarcoma cells
CCOC(=O)c1ccc(Nc2nc(-c3ccc(NC(=O)CCCCNC(=O)COc4cccc5c4C(=O)N(C4CCC(=O)NC4=O)C5=O)cc3)cs2)cc1O (stereo not shown) [Compound 1-3, ethyl 4-((4-(4-(5-(2-((2-(2,6-dioxopiperidin-3-yl)-1,3-dioxoisoindolin-4-yl)oxy)acetamido)pentanamido)phenyl)thiazol-2-yl)amino)-2-hydroxybenzoate] | inhibited growth
CCOC(=O)c1ccc(Nc2nc(-c3ccc(NC(C)=O)cc3)cs2)cc1O [Compound 1-2, Ethyl 4-((4-(4-acetamidophenyl)thiazol-2-yl)amino)-2-hydroxybenzoate] | inhibited growth

System: Ewing sarcoma cell line A673
Assay: Growth inhibition of Ewing sarcoma cell line A673
Type: cell-based

SMILES | growth of Ewing sarcoma cells
CCOC(=O)c1ccc(Nc2nc(-c3ccc(NC(=O)CCCCNC(=O)COc4cccc5c4C(=O)N(C4CCC(=O)NC4=O)C5=O)cc3)cs2)cc1O (stereo not shown) [Compound 1-3, ethyl 4-((4-(4-(5-(2-((2-(2,6-dioxopiperidin-3-yl)-1,3-dioxoisoindolin-4-yl)oxy)acetamido)pentanamido)phenyl)thiazol-2-yl)amino)-2-hydroxybenzoate] | inhibited growth
CCOC(=O)c1ccc(Nc2nc(-c3ccc(NC(C)=O)cc3)cs2)cc1O [Compound 1-2, Ethyl 4-((4-(4-acetamidophenyl)thiazol-2-yl)amino)-2-hydroxybenzoate] | inhibited growth

Biological target: T1, SIRT5
Assay: Degradation of SIRT5 protein
Type: cell-based

SMILES | degradation of protein SIRT5
CCOC(=O)c1ccc(Nc2nc(-c3ccc(NC(=O)CCCCNC(=O)COc4cccc5c4C(=O)N(C4CCC(=O)NC4=O)C5=O)cc3)cs2)cc1O (stereo not shown) [Compound 1-3, ethyl 4-((4-(4-(5-(2-((2-(2,6-dioxopiperidin-3-yl)-1,3-dioxoisoindolin-4-yl)oxy)acetamido)pentanamido)phenyl)thiazol-2-yl)amino)-2-hydroxybenzoate] | degraded
